{"source": "patent US20050164994A1", "about": "“Treatment of genitourinary tract disorders” (Control Deliver Systems, Inc., priority 2001, published 2005)", "experiment": "Canine study: codrug remaining in 5 mg pellets implanted in the prostate", "type": "in vivo", "settings": "dog prostate, 5 mg implant", "protocol": "A canine study was performed using a codrug of 5-FU and fluocinolone acetonide (Fa) to evaluate the release rate of the codrug in prostate tissue. The results of that study are detailed in FIGS. 1-3. Two 5 mg pellets of the codrug were implanted in the prostate, and the animals were humanely sacrificed on postoperative days, as indicated. The prostates were removed and levels of the codrug in the pellets determined.", "note": "“And” between values parts separate entries of the source, which are not always exact repeats. Identical values can stand only once."}
{"molecule": "CC1(C)O[C@@H]2CC3C4C[C@H](F)C5=CC(=O)C=C[C@]5(C)[C@@]4(F)[C@@H](O)C[C@]3(C)[C@]2(C(=O)COC(=O)CC(=O)n2c(=O)[nH]cc(F)c2=O)O1", "note": "(some centres unmarked) [5-FU + FA]", "values": [{"measurement": "Codrug Remaining (single pellet)", "setting": "sacrificed at 28 days", "result": "4.27 mg and 4.24 mg and 4.04 mg and 3.50 mg and 4.14 mg and 4.18 mg and 4.12 mg and 4.23 mg"}, {"measurement": "Codrug Remaining (single pellet)", "setting": "sacrificed at 42 days", "result": "3.50 mg and 3.33 mg and 3.89 mg and 4.12 mg"}]}
